Among the data in a melting point compilation (Tetko et al.; mined from patent text by program, amines drawn as free bases though some values may be those of a salt) are melting point values, retold here.

The structures appear in SMILES notation.

`CCC(N)=C(C(C)=O)C(=O)N(CCN(C)C)c1cccc(F)c1`: the melting point – broadly, the temperature of the solid-liquid transition – lay within 96 to 97 °C.
Consider `Cn1c(-c2cc(O)c3c(c2)C(=O)c2cccc(O)c2C3=O)nc2ccccc21`, for which the melting point is 266 to 267 °C.
The result for `CCCCC(=O)NC1CCN(CCNC(=O)c2nn(C(C)C)c3ccccc23)CC1` reads 107 to 109 °C.
As to `BrCc1ccccc1CCc1ccc(Br)cc1`, the melting point fell in the range of 63 to 75 °C.
In turn, `CCCCNC(=O)[C@@H](C[C@H](O)[C@H](CC1CCCCC1)N=[N+]=[N-])C(C)C` yielded a melting point of 100 °C.
The molecule `CC(=O)OCCn1nc(-c2cc(C(C)(C)C)c(O)c(C(C)(C)C)c2)c2ccc(C)nc21` yielded a melting point of 102 to 103 °C.
In turn, `CCOC(=O)C1=C(C)NC(=S)N(C(=O)OCC)C1c1ccc([N+](=O)[O-])cc1` (centres undefined) came in with a melting point of 163 to 165 °C.
The result for `CNc1noc(C)c1Cl` reads 43 to 47 °C; that for `CNC(=O)C1=C(C(=O)Nc2cc(OC3CCCC3)c(Cl)cc2F)CCCC1`, 179 to 180 °C; that for `CCCCCCCCCCCCCCOC(=O)c1cc(Cl)c(N2N=C(Nc3cc(N4CCCC4=O)ccc3Cl)CC2=O)c(Cl)c1`, 143 to 146 °C.
Then `COc1cccc(CNC(=O)c2nc3onc(C)c3c(=O)[nH]2)c1`, with 236 to 237 °C.
As for `CCCN1CC(C)C=C2c3cccc4c3C(CN4)CC21` (centres undefined), the melting point fell in the range of 135 to 137 °C.
Then `Cc1ccc(-c2nc(-c3ccc(C)cc3C)nc(-c3ccc(OCC(=O)OC4CC(C)(C)N(OC5CCCCC5)C(C)(C)C4)cc3O)n2)c(C)c1`, with 105 to 109 °C; and `Nc1ccc(N2CCN(Cc3ccccc3)CC2)nc1CS(=O)(=O)c1ccccc1`, with 175 to 176 °C.
Molecule `CCCCC(CC)COC(=O)Nc1ccc(C=C(C#N)C(=O)OCC)cc1` (centres undefined) showed a melting point of 105 °C.
Then `COc1nc(OC)nc(Oc2ccccc2C(=O)O)n1`, with 152 °C.
`CN(C)C/C=C/C(=O)Nc1cc2c(Nc3ccc(F)c(Br)c3)ncnc2cn1` had a melting point of 163 to 166 °C.
In the case of `CC(C)(C)OC(=O)NC1C(=O)N(OCc2ccccc2)C12CCOCC2` (centres undefined), the melting point lay in the range of 144 to 146 °C.
`COc1ccc(C(=O)c2ccc(OCc3nc(-c4ccccc4)oc3C)cc2)c(OCC(=O)O)c1` returned a melting point of 146 to 147 °C.
Molecule `CC(=O)OCC1OC(n2cc(Cc3ccc(Br)cc3)c3c(C)cccc32)C(OC(C)=O)C(OC(C)=O)C1OC(C)=O` (centres undefined) came in with a melting point of 190 to 192 °C.
In turn, `CCOc1cc(Cc2cnc(N)nc2N)cc2c1OC(C)(C)C=C2C` registered a melting point of 216 to 218 °C.
The result for `N#CC(C#N)=C1C(=O)Nc2ccc(S(=O)(=O)N3CCCC3COc3ccccc3)cc21` (centres undefined) reads 246 to 248 °C; that for `CCSC(=S)SC1NC(=O)C1C(C)OC(C)=O` (mixture of isomers), 101 to 105 °C.
`O=C1C=C(c2c[nH]c3ccc(Cl)cc23)C(=O)N1`: the melting point was in the range of 254 to 264 °C.
As to `Clc1ccc(-c2cc(CCC3CCCNC3)c3ccccc3n2)cc1` (centres undefined), the melting point came out at 155 °C.
`Cc1cncc2ncc(-c3ccccc3)cc12` yielded a melting point of 135 to 138 °C.
In the case of `NS(=O)(=O)c1cccc2c1ccc1nc(O)c(O)nc12`, the melting point was 420 °C.
`CCCc1c(O)ccc2c(C)c(CC(=O)OC)c(=O)oc12` returned a melting point of 160 to 162 °C.
The result for `CCNC(=O)c1c([Si](C)(C)C)ccc(C=O)c1Cl` reads 140 to 142 °C; that for `O=[N+]([O-])c1c(Br)cccc1CS(=O)(=O)c1ccccc1`, 138 to 141 °C; that for `Cc1ccc(N2CN(C(C)(C)C)C3=NN=CC3=C2N)cc1`, 203 to 204 °C.
In turn, `CC(=C(c1ccc(N(C)C)cc1)c1ccc(N(C)C)cc1)P(C1CCCCC1)C1CCCCC1` showed a melting point of 159 to 164 °C.
As to `CCOC(=O)C(C(=O)NCc1ccccc1)=C1SC=CS1`, the melting point lay within 79 to 81 °C.
As to `COc1cc(C(C)=O)ccc1OCCN1CCC(c2noc3cc(Cl)ccc23)CC1`, the melting point lay within 133 to 135 °C.
The molecule `CCOC(=O)c1c(Nc2c(C)cccc2Cl)n[nH]c1C` had a melting point of 158 to 159 °C.
The result for `COC(=O)CCc1ccc(CNC(=O)C2Cc3ccccc3N2S(=O)(=O)c2ccc(-c3cccc(C(F)(F)F)c3)cc2)cc1` (centres undefined) reads 61 °C; that for `O=C(c1c(O)c2ccccc2c2nc3ccccc3nc12)N1CCOCC1`, 223 to 225 °C.
`CCCc1c(O)cc(O)c(C)c1C(=O)OC` gave a melting point of 88 to 91 °C.
`CCn1c(COC)nc(C(C)C)c1Sc1cc(C#N)cc(C#N)c1` came in with a melting point of 156 to 158 °C.
The result for `COC(=O)NS(=O)(=O)c1ncccc1C(F)(F)F` reads 128 to 129 °C; that for `O=c1ccn(-c2ccccc2F)nc1-c1ccnn1-c1ccccc1`, 124 to 125 °C.
The molecule `O=C1c2ccccc2OC2CCCON12` (centres undefined) displayed a melting point of 139 to 141 °C.
Take `CNC1=NS(=O)(=O)N=C1NCCCOc1cccc(CN2CCCCC2)c1`: the melting point lay in the range of 182 to 184 °C.
The result for `Cc1c(-c2cccnn2)ssc1=S` reads 193 °C; that for `CN(C)C(=O)C(C)(c1ccccc1)n1ccc(-c2ccccc2)n1` (centres undefined), 129 to 132 °C.
For `CCc1nc2c(N)nc(C)c(C)c2n1CCOCCNC(=O)C1CCCCC1`, the melting point is 170 to 172 °C.
The result for `CN1CCN(c2sc(-c3nc4ccccc4c(=O)n3-c3ccc(Cl)cc3)cc2-c2ccc(S(C)(=O)=O)cc2)CC1` reads 232 to 233 °C; that for `N#Cc1ccc(Cn2cncn2)cc1-c1ccc(OS(N)(=O)=O)cc1`, 159 to 162 °C; that for `CCOC(=O)N1CCc2nc3ccccc3c(CO)c2CC1`, 158 °C.
`COC(=O)C(NC(=O)Nc1ccc(C=NO)cc1)C(=O)OC` yielded a melting point of 162 °C.
As to `Clc1cccc(-c2cc(OCC3CO3)no2)c1` (centres undefined), the melting point was 86 to 87 °C.
The result for `CCCCn1c(C)c(C)cc(O)c1=O` reads 112 to 116 °C.
The result for `COc1c(NC(=O)Nc2ccc(-c3ccc(CN4CCOCC4)nc3)c3ccccc23)cc(C(C)(C)C)cc1Nc1c(N(C)C)c(=O)c1=O` reads 176 to 179 °C; that for `CC(=O)Oc1cc(C(C)C)c(NC(=O)CN2CCN(CCSc3nc4ccccc4o3)CC2)c(C(C)C)c1`, 126 to 129 °C.
Then `O=C(O)C(c1ccc(Cl)cc1)C1CC1` (centres undefined), with 95 to 96 °C.
In the case of `CCOC(=O)/C=C/c1cnn(C)c1C`, the melting point was in the range of 82 to 83 °C.
`CCOC(=O)CC1Cc2ccc(O)cc2Cc2ccccc21` (centres undefined) gave a melting point of 110 to 112 °C.
For `CC(C(N)=O)c1ccc2c(c1)C(=O)Cc1c(Cl)cccc1S2` (centres undefined), the melting point is 195 to 196 °C.
As for `CN1CCN(Cc2ccc(NC(=O)c3ccc(Cl)c(C#Cc4ccc(NC5CCC5)nn4)c3)cc2C(F)(F)F)CC1`, the melting point was 132 to 133 °C.
On to `Cc1ccc(C(=O)NC(=O)N2CC2C#N)cc1` (centres undefined), for which the melting point is 177 to 180 °C.
Then `O=C(NOCc1ccccc1)c1ccc(CNC(=O)c2cn3c4c(cccc24)CCC3)cc1`, with 234 to 235 °C.
The molecule `CC(=O)Nc1cc2c(cc1[N+](=O)[O-])N(C(C)=O)CCO2` had a melting point of 199 to 202 °C.
The result for `O=C(c1ccnc(F)c1)N1CCC[C@H](c2noc(-c3ccc(F)cc3)n2)C1` reads 117 to 119 °C; that for `COc1ccc(C(=O)C(Br)CC2CCCCC2)c(OC)c1` (centres undefined), 83 to 89 °C; that for `c1ccc(CCc2n[nH]c(NCCCCOc3cccc(CN4CCCCC4)c3)n2)cc1`, 146 to 147 °C.
Take `CCOC(=O)c1c(C(=O)O)ccc(OC)c1OC`: the melting point lay in the range of 148 to 149 °C.
In turn, `CN(C)c1ccc(C(=O)C(O)c2cccc(F)c2)cc1` (centres undefined) yielded a melting point of 147 to 149 °C.
Then `CC(=N)NS(=O)(=O)C=Cc1ccccc1`, with 130 to 134 °C; and `CCNc1ccc(C)c(O)c1`, with 128 to 129 °C.
Consider `CCOC(=O)/C=C/c1cc2c(Nc3ccc4[nH]ccc4c3)c(C#N)cnc2s1`, for which the melting point was 226 °C.
Take `Cc1ccc(N2CCN([C@@H](Cc3ccc(OCCc4nc(-c5ccccc5)oc4C)c(Br)c3)C(=O)O)CC2)cc1`: the melting point is 203 to 205 °C.
The molecule `Clc1ccccc1-c1nc(-c2ccccc2)c(-c2ccccc2)n1Br` came in with a melting point of 103 to 105 °C.
As for `CN1CCCCC1C(=O)NN=Cc1cc(Cl)cc(Cl)c1O` (centres undefined), the melting point was in the range of 107 to 110 °C.
The result for `C=C(c1cc(Cl)ccc1N1CCCCC1)C(C(N)=O)c1ccc(C(=O)O)cc1` (centres undefined) reads 198 to 200 °C.
`CCCc1ccc(C(=O)O)c(C(=O)O)n1` returned a melting point of 149 to 153 °C.
As for `Cc1c(C=O)c2c(c(C)c1NC(=O)CC(C)(C)C)C(c1ccc(C(C)C)cc1)CO2` (centres undefined), the melting point lay in the range of 177 to 178 °C.
For the molecule `COc1ccc2cccc(N3C(=O)CNCC3=O)c2c1`, the melting point was determined as 232 °C.
Molecule `COC(=O)c1c(C)cc(-c2ccccc2)nc1-c1cccc([N+](=O)[O-])c1` showed a melting point of 105 to 106 °C.
Molecule `Clc1ccc2nnnn2n1` came in with a melting point of 104 to 105 °C.
Consider `CCOCCOC(=O)C(=O)Nc1nc(-c2cc3ccc(O)cc3oc2=O)cs1`, for which the melting point was 217 to 218 °C.
On to `COC(=O)c1cccc(-c2cn(C)cc(-n3cccn3)c2=O)c1`, for which the melting point stood at 144 °C.
The result for `CC(C)(C)c1cc(SC[Si](C)(C)C)cc(C(C)(C)C)c1O` reads 100 to 101 °C; that for `COc1ccc2c(c1)cc(C(=O)Nc1nc(-c3cc(OC)c(C)cc3OC)c(CCC3CCCCC3)s1)n2CC(=O)O`, 163 to 165 °C; that for `NCC(c1ccc(F)cc1)C1CCCCC1O` (mixture of isomers), 75 to 76 °C.
As to `Cc1cc(C(F)(F)F)nc(-c2ccc(O)cc2)n1`, the melting point is 131 to 132 °C.
In the case of `CCCc1c(OCC#CCCCC(=O)NCCCCc2cccnc2)ccc(C(C)=O)c1O`, the melting point lay in the range of 77 to 80 °C.
`CCOC(=O)c1ccc(OCC(O)COc2cccc3oc(C(=O)OCC)cc(=O)c23)cc1` (centres undefined) had a melting point of 134 to 135 °C.
For the molecule `COc1cccc2c1C(C)(C)c1ccccc1C2`, the melting point lay in the range of 62 to 64 °C.
With `COc1cc2nc(-c3cc(C)c(O)c(C)c3)[nH]c(=O)c2c(OC)c1CN1CCOCC1`, the melting point fell in the range of 237 to 239 °C.
